13 molecules from PubChem BioAssay AID192 (DTP/NCI, 2004) can be followed below.

The subject of this experiment is BDF1 mice, B16 melanoma ip, median survival T/C. Briefly: NCI In Vivo Anticancer Drug Screen. Data for tumor model B16 Melanoma (intraperitoneal) in B6D2F1 (BDF1) mice. As to conditions: endpoint: median survival time, higher = longer survival. The essentials:
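Read-out: survival or tumor size, given as treated/control ratio. Controls received vehicle only; animals bore transplantable tumors.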

Where [1] appears, read: dose: 200.0 mg/kg/injection, schedule: Q01DX009 (ip), vehicle: Klucel (hydroxypropylcellulose) (HPC).
Where [2] appears, read: dose: 12.5 mg/kg/injection, schedule: Q01DX009 (ip), vehicle: saline with Tween-80.
The mark [3] stands for this setting: dose: 25.0 mg/kg/injection, schedule: Q01DX009 (ip), vehicle: saline with Tween-80.
[4] abbreviates: dose: 50.0 mg/kg/injection, schedule: Q01DX009 (ip), vehicle: saline with Tween-80.
The mark [5] stands for this setting: dose: 100.0 mg/kg/injection, schedule: Q01DX009 (ip), vehicle: saline with Tween-80.
Where [6] appears, read: dose: 200.0 mg/kg/injection, schedule: Q01DX009 (ip), vehicle: saline with Tween-80.
The mark [7] stands for this setting: dose: 400.0 mg/kg/injection, schedule: Q01DX009 (ip), vehicle: saline with Tween-80.
Where [8] appears, read: dose: 3.12 mg/kg/injection, schedule: Q01DX009 (ip), vehicle: saline.
Setting [9] is: dose: 6.25 mg/kg/injection, schedule: Q01DX009 (ip), vehicle: saline.
Where [10] appears, read: dose: 12.5 mg/kg/injection, schedule: Q01DX009 (ip), vehicle: saline.
Setting [11] is: dose: 25.0 mg/kg/injection, schedule: Q01DX009 (ip), vehicle: saline.

The structures appear in SMILES notation. Values joined by “and” are separate entries in the source; they are usually repeats but may differ in a detail not shown here. Equal values may be shown once. Inconclusive results and toxic doses are left out.

With `Cc1c[nH]c(=O)[nH]c1=O`, the T/C runs as follows: (dose: 32.0 mg/kg/injection, schedule: Q01DX009 (ip), vehicle: Klucel (hydroxypropylcellulose) (HPC)) 97 % of control and 102 % of control; (dose: 32.0 mg/kg/injection, schedule: Q01DX009 (ip), vehicle: saline with Tween-80) 91 % of control; (dose: 64.0 mg/kg/injection, schedule: Q01DX009 (ip), vehicle: Klucel (hydroxypropylcellulose) (HPC)) 97 % of control; (dose: 64.0 mg/kg/injection, schedule: Q01DX009 (ip), vehicle: saline with Tween-80) 100 % of control; (dose: 128.0 mg/kg/injection, schedule: Q01DX009 (ip), vehicle: Klucel (hydroxypropylcellulose) (HPC)) 97 % of control and 103 % of control; (dose: 256.0 mg/kg/injection, schedule: Q01DX009 (ip), vehicle: Klucel (hydroxypropylcellulose) (HPC)) 100 % of control and 103 % of control. The T/C is 98 % of control and 103 % of control (dose: 512.0 mg/kg/injection, schedule: Q01DX009 (ip), vehicle: Klucel (hydroxypropylcellulose) (HPC)); 107 % of control (dose: 512.0 mg/kg/injection, schedule: Q01DX009 (ip), vehicle: saline with Tween-80).

With `S=c1nc[nH]c2nc[nH]c12`, the T/C was 120 % of control (dose: 2.5 mg/kg/injection, schedule: Q01DX009 (ip), vehicle: other); 107 % of control (dose: 2.5 mg/kg/injection, schedule: Q01DX009 (ip), vehicle: saline); 112 % of control (dose: 5.0 mg/kg/injection, schedule: Q01DX009 (ip), vehicle: other); 110 % of control (dose: 5.0 mg/kg/injection, schedule: Q01DX009 (ip), vehicle: saline); 93 % of control (dose: 7.5 mg/kg/injection, schedule: Q01DX009 (ip), vehicle: Klucel (hydroxypropylcellulose) (HPC)); 94 % of control (dose: 9.38 mg/kg/injection, schedule: Q01DX009 (ip), vehicle: alkali diluted with water). Further, the T/C reads like this: (dose: 10.0 mg/kg/injection, schedule: Q01DX009 (ip), vehicle: saline) 110 % of control; (dose: 11.3 mg/kg/injection, schedule: Q01DX009 (ip), vehicle: other) 90 % of control; (dose: 12.5 mg/kg/injection, schedule: Q01DX009 (ip), vehicle: Klucel (hydroxypropylcellulose) (HPC)) 110 % of control; (dose: 18.8 mg/kg/injection, schedule: Q01DX009 (ip), vehicle: alkali diluted with water) 100 % of control; (dose: 20.0 mg/kg/injection, schedule: Q01DX009 (ip), vehicle: saline) 160 % of control; (dose: 22.5 mg/kg/injection, schedule: Q01DX009 (ip), vehicle: other) 95 % of control. Moreover, the T/C runs as follows: (dose: 25.0 mg/kg/injection, schedule: Q01DX009 (ip), vehicle: acid diluted with saline) 87 % of control; (dose: 30.0 mg/kg/injection, schedule: Q01DX009 (ip), vehicle: saline) 105 % of control; (dose: 37.5 mg/kg/injection, schedule: Q01DX009 (ip), vehicle: alkali diluted with water) 88 % of control; (dose: 40.0 mg/kg/injection, schedule: Q01DX009 (ip), vehicle: saline) 110 % of control; (dose: 75.0 mg/kg/injection, schedule: Q01DX009 (ip), vehicle: alkali diluted with water) 84 % of control; (dose: 78.0 mg/kg/injection, schedule: Q04DX003 (ip), vehicle: alkali diluted with water) 96 % of control. Further, the T/C (dose: 120.0 mg/kg/injection, schedule: Q04DX003 (ip), vehicle: alkali diluted with water) is 98 % of control; the T/C (dose: 150.0 mg/kg/injection, schedule: Q01DX009 (ip), vehicle: alkali diluted with water) was 46 % of control; the T/C (dose: 200.0 mg/kg/injection, schedule: Q04DX003 (ip), vehicle: alkali diluted with water) is 84 % of control; the T/C (dose: 333.0 mg/kg/injection, schedule: Q04DX003 (ip), vehicle: alkali diluted with water) is 81 % of control.

On to `CCNC1=C(N2CC2)C(=O)C(NCC)=C(N2CC2)C1=O`, for which the T/C (dose: 0.37 mg/kg/injection, schedule: Q01DX009 (ip), vehicle: saline) is 112 % of control; the T/C (dose: 0.75 mg/kg/injection, schedule: Q01DX009 (ip), vehicle: saline) was 104 % of control and 116 % of control.

With `OCC1OC(n2nnc3cc[nH]c(=S)c32)C(O)C1O` (stereo not drawn), the T/C (dose: 3.13 mg/kg/injection, schedule: Q01DX009 (ip), vehicle: water) was 97 % of control; the T/C (dose: 6.25 mg/kg/injection, schedule: Q01DX009 (ip), vehicle: water) is 113 % of control; the T/C (dose: 12.5 mg/kg/injection, schedule: Q01DX009 (ip), vehicle: water) was 101 % of control; the T/C (dose: 25.0 mg/kg/injection, schedule: Q01DX009 (ip), vehicle: water) is 101 % of control.

`COC(=O)Nc1cccc(-c2nc3ccc(NC(=O)OC)cc3c(=O)n2-c2ccccc2)c1`: the T/C reads like this: (dose: 8.0 mg/kg/injection, schedule: Q01DX009 (ip), vehicle: Klucel (hydroxypropylcellulose) (HPC)) 107 % of control; (dose: 8.0 mg/kg/injection, schedule: Q01DX009 (ip), vehicle: saline) 112 % of control; (dose: 16.0 mg/kg/injection, schedule: Q01DX009 (ip), vehicle: Klucel (hydroxypropylcellulose) (HPC)) 107 % of control; (dose: 50.0 mg/kg/injection, schedule: Q04DX005 (ip), vehicle: other) 112 % of control; (dose: 50.0 mg/kg/injection, schedule: Q04DX006 (ip), vehicle: saline) 117 % of control; (dose: 64.0 mg/kg/injection, schedule: Q01DX009 (ip), vehicle: saline) 123 % of control. In addition, the T/C reads like this: (dose: 100.0 mg/kg/injection, schedule: Q04DX005 (ip), vehicle: other) 120 % of control; (dose: 100.0 mg/kg/injection, schedule: Q04DX005 (oral), vehicle: saline) 99 % of control; (dose: 200.0 mg/kg/injection, schedule: Q04DX005 (oral), vehicle: saline) 97 % of control; (dose: 400.0 mg/kg/injection, schedule: Q04DX005 (oral), vehicle: saline) 114 % of control.

As for `O=C1C=CC(=O)C2=C1C1c3ccccc3C2([N+](=O)[O-])c2ccccc21`, the T/C by setting is: (dose: 100.0 mg/kg/injection, schedule: Q01DX009 (ip), vehicle: Klucel (hydroxypropylcellulose) (HPC)) 97 % of control; under setting [1], 97 % of control; (dose: 400.0 mg/kg/injection, schedule: Q01DX009 (ip), vehicle: Klucel (hydroxypropylcellulose) (HPC)) 100 % of control.

Regarding `O=C1c2c(O)cccc2-c2nn(CCNCCO)c3ccc(NCCNCCO)c1c23`, the T/C is 306 % of control (dose: 2.75 mg/kg/injection, schedule: Q01DX009 (ip), vehicle: water) and 306 % of control (dose: 5.5 mg/kg/injection, schedule: Q01DX009 (ip), vehicle: water).

For the molecule `Cn1ccc(=Nc2ccc(NC(=O)c3ccc(N=c4ccn(C)c5ccc([N+](=O)[O-])cc45)cc3[N+](=O)[O-])cc2)cc1`, the T/C by setting is: under setting [2], 96 % of control; under setting [3], 97 % of control; under setting [4], 97 % of control; under setting [5], 105 % of control; under setting [6], 97 % of control; under setting [7], 91 % of control.

Turning to `Cc1ccc(Oc2c3c(nc4ccccc24)CCCC3)cc1`, the T/C runs as follows: under setting [5], 110 % of control; under setting [6], 107 % of control; under setting [7], 92 % of control.

For `COC1N(C2CC(O)C(CO)O2)C(=O)NC(=O)C1(F)Br` (stereo not drawn), the T/C reads like this: (dose: 1.56 mg/kg/injection, schedule: Q01DX009 (ip), vehicle: saline) 100 % of control; under setting [8], 87 % of control; (dose: 5.0 mg/kg/injection, schedule: Q01DX009 (ip), vehicle: saline with Tween-80) 106 % of control; under setting [9], 102 % of control; (dose: 10.0 mg/kg/injection, schedule: Q01DX009 (ip), vehicle: saline with Tween-80) 109 % of control; under setting [10], 108 % of control. The T/C reads like this: (dose: 20.0 mg/kg/injection, schedule: Q01DX009 (ip), vehicle: saline with Tween-80) 104 % of control; under setting [11], 88 % of control.

As for `CN(C)CCC=C1c2ccccc2CCc2ccccc21`, the T/C under setting [8] was 109 % of control, the T/C under setting [9] is 117 % of control, the T/C under setting [10] was 100 % of control and the T/C under setting [11] was 102 % of control.

As for `O=C(Nc1ccccc1F)C(c1ccccc1)c1ccccc1`, the T/C under setting [2] is 101 % of control, the T/C under setting [3] is 95 % of control, the T/C under setting [4] was 95 % of control and the T/C under setting [1] is 86 % of control.

Turning to `O=C(O)c1cccc2[nH]c(=O)oc(=O)c12`, the T/C by setting is: under setting [5], 89 % of control; under setting [6], 91 % of control.
